From ChEMBL document CHEMBL4814073, “Ring-opening of five-membered heterocycles conjugated 4-isopropylresorcinol scaffold-based benzamides as HSP90 inhibitors suppressing tumor growth in vitro and in vivo” (Eur J Med Chem, 2021)
One block for each compound: values may come before it.

Columns and labels:
MDA-MB-231 = assay: Antiproliferative activity against human MDA-MB-231 cells assessed as growth inhibition incubated for 48 hrs by Sulforhodamine B assay; format: functional
HCT-116 = assay: Antiproliferative activity against human HCT116 cells assessed as growth inhibition incubated for 48 hrs by Sulforhodamine B assay; format: functional
661W = assay: Cytotoxicity against mouse 661W cells by MTT based vision related toxicity assay; format: cell-based
Hep 3B2 = assay: Antiproliferative activity against human Hep3B cells assessed as growth inhibition incubated for 48 hrs by Sulforhodamine B assay; format: functional
[1] = Antiproliferative activity against human HUVEC cells assessed as growth inhibition incubated for 48 hrs by Sulforhodamine B assay; format: cell-based
A549 = assay: Antiproliferative activity against human A549 cells assessed as growth inhibition incubated for 48 hrs by Sulforhodamine B assay; format: functional
in vitro = details: human, HUVEC cells versus A549 cells
Description: Therapeutic index, ratio of IC50 for HUVEC cells to IC50 for human A549 cells

Heat shock protein HSP90 = Heat shock protein HSP90 (Homo sapiens, UniProt P07900+P08238); assay: Inhibition of HSP90 (unknown origin) assessed as competition of fluorescently labelled geldanamycin binding after 2 hrs by microplate reader analysis; format: protein assay
[2] = Apparent permeability across basolateral to apical in human Caco2 cells by LC-MS/MS analysis; format: ADME, cell-based; details: Caco-2

SMILES: C=CCNC1=C2C[C@@H](C)C[C@H](OC)[C@H](O)[C@@H](C)/C=C(\C)[C@H](OC(N)=O)[C@@H](OC)/C=C\C=C(/C)C(=O)NC(=CC1=O)C2=O [TANESPIMYCIN]
GI50 (MDA-MB-231): 270 nM
GI50 (HCT-116): 340 nM
Activity (661W): > 10 µM
GI50 (Hep 3B2): 80 nM
GI50 at 48 h [1]: < 100 nM
GI50 (A549): 80 nM

SMILES: CC(C)c1cc(C(=O)Nc2cccnc2)c(O)cc1O
GI50 (A549): > 10000 nM

SMILES: CCN(C(=O)c1cc(C(C)C)c(O)cc1O)c1ccncc1
GI50 (MDA-MB-231): 80 nM
GI50 (HCT-116): 640 nM
GI50 (Hep 3B2): 100 nM
GI50 at 48 h [1]: < 100 nM
GI50 (A549): 120 nM
selectivity ratio (in vitro): 0.8
IC50 (Heat shock protein HSP90): 109 nM

SMILES: CC(C)c1cc(C(=O)N(c2ccncc2)C(C)C)c(O)cc1O
GI50 (A549): 190 nM

SMILES: CCCN(C(=O)c1cc(C(C)C)c(O)cc1O)c1ccc2c(ccn2C)c1
GI50 (A549): 300 nM

SMILES: CC(C)c1cc(C(=O)Nc2ccc3[nH]ccc3c2)c(O)cc1O
GI50 (A549): > 10000 nM

SMILES: CCNC(=O)c1noc(-c2cc(C(C)C)c(O)cc2O)c1-c1ccc(CN2CCOCC2)cc1 [LUMINESPIB]
Activity (661W): 0.04 µM

SMILES: CC(C)c1cc(C(=O)Nc2ccc3c(ccn3C)c2)c(O)cc1O
GI50 (A549): > 10000 nM

SMILES: CC(C)c1cc(C(=O)N(C)c2ccc3c(ccn3C)c2)c(O)cc1O
GI50 (MDA-MB-231): 100 nM
GI50 (HCT-116): 700 nM
GI50 (Hep 3B2): 570 nM
GI50 at 48 h [1]: 820 nM
GI50 (A549): 280 nM
selectivity ratio (in vitro): 2.9
IC50 (Heat shock protein HSP90): 106 nM

SMILES: CC(C)c1cc(C(=O)Nc2ccncc2)c(O)cc1O
GI50 (A549): > 10000 nM

SMILES: CC(C)c1cc(C(=O)N(c2cccnc2)C(C)C)c(O)cc1O
GI50 (A549): 260 nM

SMILES: CC(C)c1cc(C(=O)N(C)c2ccc3[nH]ccc3c2)c(O)cc1O
GI50 (MDA-MB-231): 70 nM
GI50 (HCT-116): 1000 nM
GI50 (Hep 3B2): 180 nM
GI50 at 48 h [1]: 570 nM
GI50 (A549): 170 nM
selectivity ratio (in vitro): 3.4
IC50 (Heat shock protein HSP90): 115 nM

SMILES: CCN(C(=O)c1cc(C(C)C)c(O)cc1O)c1ccc2c(ccn2C)c1
GI50 (A549): 80 nM

SMILES: CCCN(C(=O)c1cc(C(C)C)c(O)cc1O)c1cccnc1
GI50 (A549): 390 nM

SMILES: CCCN(C(=O)c1cc(C(C)C)c(O)cc1O)c1ccc2[nH]ccc2c1
GI50 (A549): 140 nM

SMILES: COC1=C2C[C@@H](C)C[C@H](OC)[C@H](O)[C@@H](C)/C=C(\C)[C@H](OC(N)=O)[C@@H](OC)/C=C\C=C(/C)C(=O)NC(=CC1=O)C2=O [GELDANAMYCIN]
Activity (661W): 1.65 µM

SMILES: CC(C)c1cc(C(=O)N(c2ccc3[nH]ccc3c2)C(C)C)c(O)cc1O
GI50 (A549): 210 nM

SMILES: CCN(C(=O)c1cc(C(C)C)c(O)cc1O)c1ccc2[nH]ccc2c1
GI50 (MDA-MB-231): 80 nM
GI50 (HCT-116): 370 nM
GI50 (Hep 3B2): 110 nM
GI50 at 48 h [1]: < 100 nM
GI50 (A549): 110 nM
selectivity ratio (in vitro): 0.9
IC50 (Heat shock protein HSP90): 117 nM

SMILES: COc1c(C)cnc(Cn2cnc3c(Cl)nc(N)nc32)c1C [BIIB021]
GI50 (MDA-MB-231): 240 nM
Activity (661W): > 10 µM
GI50 (Hep 3B2): 240 nM
GI50 at 48 h [1]: 1420 nM

permeability [2]: 8.04 10^-6 cm/s
SMILES: COC(=O)c1ccccc1-c1c2ccc(=N)cc-2oc2cc(N)ccc12.Cl [RHODAMINE123]

SMILES: CC(C)c1cc(-c2n[nH]c(=O)n2-c2ccc3c(ccn3C)c2)c(O)cc1O [GANETESPIB]
Activity (661W): > 10 µM

SMILES: CCCN(C(=O)c1cc(C(C)C)c(O)cc1O)c1ccncc1
GI50 (A549): 370 nM
